From patent EP3516395B1, “METHOD FOR DETERMINING AFFINITY BETWEEN LIGANDS AND A TARGET” (Plant Advanced Technologies Pat, priority 2016, dated 2018)
pIC50: −log10 of the molar value.

Key:
tyrosinase = conditions: literature values, 50% reduction of enzyme activity; cited from earlier work
tyrosinase de champignon = experiment: Relative affinity by competitive binding, ultrafiltration and UPLC-MS/UV (Example 1); conditions: equimolar ligands
Description: Une solution de travail de tyrosinase de champignon à 1.25 mg/mL est préparée en dissolvant de la poudre de l'enzyme lyophilisée dans 50 mM d'acétate d'ammonium, avec un pH de 7.0. L'échantillon est préparé en utilisant l'un des solvants suivants : des glycols, DMSO (diméthylsulfoxide), l'éthanol, pur ou en solution dans l'eau. La concentration dans l'échantillon des ligands initiaux est équimolaire et doit être dans la gamme de 0,75 à 1 mM. Les ligands choisis étaient des inhibiteurs connus de la tyrosinase isolés depuis des racines de murier noir (Morus nigra) : la moracénine A, moracénine B et la kuwanone C. Un échantillon de référence est préparé également en diluant l'échantillon de 10 à 20 fois dans une solution d'eau et d'un quart de volume d'acétonitrile.
• 1. Étape de préconditionnement - Des puits à membrane filtrante sont pré-conditionnées avec un volume de 500 µl d'une solution à 85% d'acétate d'ammonium et 15% d'éthanol qui est passé à travers la membrane avec une centrifugation de 14000 g pendant 60 secondes. • 2. Étape de liaison - La préparation de tyrosinase (1.25 mg/mL, 75 µL) est mélangée avec 5 µl de l'échantillon dans un tube d'Eppendorf en plastique, puis est incubée pendant 5 min. Dans ce mélange, on a 9,16 µM de tyrosinase et une gamme de 46,88 µM à 62,5 µM de ligands (moracénine A, moracénine B et kuwanone C) soit un ratio ligands/cible allant de 5,12 à 6,83. • 3. Étape de lavage - le mélange de l'enzyme et de l'échantillon est déposé dans un puits préconditionné à l'étape de préconditionnement, puis centrifugé à 14000 g jusqu'à l'élimination de l'essentiel du solvant. Les complexes enzyme-ligands restent à la surface de la membrane du filtre puis sont à nouveau suspendu dans un volume de 100 µL de la même solution à 85% d'acétate d'ammonium et 15% d'éthanol et centrifugé à 14000 g jusqu'à élimination du solvant. Cette procédure est répétée trois fois et élimine tous les composés qui ne sont pas liés à l'enzyme. • 4. Étape de séparation - Les complexes enzyme-ligands retenus dans le filtre sont à nouveau suspendus dans un volume de 10 µL d'eau ultra-pure, puis sont mélangés avec un volume de 40 µL d'acétonitrile pour dénaturer et précipiter l'enzyme et, en même temps libérer les ligands. Le mélange est centrifugé à 21000 g pendant 10 min pour séparer le précipité du surnageant. • 5. Étape d'analyse - Ledit surnageant formant la solution traitée est analysé par chromatographie en phase liquide couplée à une spectrométrie de masse, connue également par l'acronyme UPLC-MS. L'échantillon de référence est analysé également de la même manière, en utilisant les mêmes conditions d'analyse. Les affinités relatives sont calculées selon la méthode décrite ci-après. De préférence, l'échantillon de référence et la solution traitée sont analysés séquentiellement pour éliminer des dispersions dues aux réglages de l'appareillage.
Une analyse par chromatographie en phase liquide fournit un chromatogramme tel que montré par les figures 1 et 2. Le chromatogramme représente une intensité de signal en fonction du temps de rétention dans une colonne. Le signal présente différents pics d'intensité variable. Chaque pic est associé à l'un des ligands présent dans l'échantillon et la solution traitée. • 1. Normalisation de l'intensité du signal analytique pour les ligands dans l'échantillon de référence. Pour chaque chaque ligand CEi dans l'échantillon de référence, on établit des facteurs de normalisation NFeq dudit ligand CEi par comparaison au ligand de référence REF, selon l'équation suivante : NFeq,CEi = (ISeq,CEi)/(ISeq,REF) [formula] où : • NF est un facteur de normalisation; • ISeq,CEi est l'intensité du signal analytique pour le ligand CEi dans l'échantillon; • ISeq,REF est l'intensité du signal analytique pour le ligand de référence REF dans l'échantillon. L'intensité peut être choisie parmi l'aire du pic ou la valeur maximale du pic. Le facteur de normalisation du ligand de référence vaut toujours 1. • 2. […]

[1] = system: hyaluronidase de testicules bovins; experiment: Affinity by binding, ultrafiltration and UPLC-MS (Example 5); conditions: chromatogram B, figure 3
Description: (§1) Une solution de travail de hyaluronidase de testicules bovins à 5 mg/mL est préparée en dissolvant de la poudre de l'enzyme lyophilisée dans un tampon phosphate salin à 50 mM, avec un pH de 7,0. Une solution de travail de trypsine (la cible témoin) est préparée de la même manière que celle de hyaluronidase. L'échantillon est préparé en utilisant l'un des solvants suivants : des glycols, DMSO (diméthylsulfoxide), l'éthanol pur ou en solution dans l'eau. La concentration dans l'échantillon de ligand initial doit être dans la gamme de 0,75 à 1 mM. Le ligand choisi (quercétine) est un inhibiteur connu de l'hyaluronidase (Asian J. Chem. 2013, 25, 10262-10266). Un échantillon de référence est préparé également en diluant l'échantillon de 10 à 20 fois dans une solution de trois quarts de volume d'acétonitrile et d'un quart de volume d'eau. […]

trypsine [2] = conditions: 2660 µM; International Journal of Food Science & Technology 2014, 49, 1063-1069; cited from earlier work
hyaluronidase = conditions: 200 µM; Asian J. Chem. 2013, 25, 10262-10266; cited from earlier work
trypsine [3] = experiment: Affinity by binding, ultrafiltration and UPLC-MS, control target (Example 5); conditions: chromatogram C, figure 3
Description: as §1

Facteur de normalisation, solution traitée (tyrosinase de champignon; NFTB, peak area UV 270 nm relative to reference ligand moracénine B)	Affinités relatives (tyrosinase de champignon; RA = NFTB/NFeq, reference ligand moracénine B)	affinité [1]	affinité (trypsine [3])	Molecule	pIC50 (tyrosinase)	inhibition de la trypsine (trypsine [2])	inhibition de l'hyaluronidase (hyaluronidase)
1,29	1,50			moracénine A	4.99		
		affinité importante	très faible affinité	O=c1c(O)c(-c2ccc(O)c(O)c2)oc2cc(O)cc(O)c12 [quercétine]		46%	54%
